Measured values taken from the NIST ThermoML archive (doi:10.1016/j.jct.2008.07.024).
Where “and” joins values, the source holds several entries; their conditions need not be identical. Equal values may be shown once. ± gives the expanded uncertainty stated by the source.

Conditions: Liquid, Closed cell (Static) method

Structure (SMILES) | vapor or sublimation pressure (303.15 K) [kPa] | vapor or sublimation pressure (313.15 K) | vapor or sublimation pressure (323.15 K)
CCCOCCO [2-propoxyethanol] | 0.45 ± 0.02 | 0.87 ± 0.02 kPa and 0.89 ± 0.02 kPa | 1.59 ± 0.02 kPa and 1.61 ± 0.02 kPa
CCCCCCC [heptane] | 7.92 ± 0.03 | 12.24 ± 0.03 kPa | 18.91 ± 0.04 kPa
CCCCCC [hexane] | 25.16 ± 0.05 | 37.42 ± 0.07 kPa | 54.11 ± 0.1 kPa
